Measurements: ChEMBL document CHEMBL3826966, “A chromatography-free isolation of rohitukine from leaves of Dysoxylum binectariferum: Evaluation for in vitro cytotoxicity, Cdk inhibition and physicochemical properties” (Bioorg Med Chem Lett, 2016)
Values after ≈ are worked out from the molar mass of the structure shown.

Legend:
[1] = target: 3-phosphoinositide-dependent protein kinase 1 (Homo sapiens) (UniProt O15530); assay: Inhibition of human PDK1 (52 to 556 residues) assessed as remaining enzyme activity at 50 uM after 30 mins by 33P-ATP filter-binding assay
[2] = Thermodynamic equilibrium solubility in PBS buffer at 120 ug/ml at pH 7.4 by HPLC analysis; assay type: physicochemical; details: read-out: Therm_solubility
[3] = target: Tyrosine-protein kinase ABL1 (Homo sapiens) (UniProt P00519); assay: Inhibition of human ABL (118 to 535 residues) assessed as remaining enzyme activity at 50 uM after 30 mins by 33P-ATP filter-binding assay
[4] = target: Fibroblast growth factor receptor 1 (Homo sapiens) (UniProt P11362); assay: Inhibition of human FGFR1 (400 to 820 residues) assessed as remaining enzyme activity at 50 uM after 30 mins by 33P-ATP filter-binding assay
T47D = assay: Cytotoxicity against human T47D cells assessed as cell growth inhibition after 48 hrs by MTT assay; assay type: functional
[5] = Cell cycle arrest in human HL60 cells assessed as accumulation at G2 phase at 5 uM (reference value: 5 %); assay type: functional, cell-based; details: HL-60
[6] = target: Serine/threonine-protein kinase 26 (Homo sapiens) (UniProt Q9P289); assay: Inhibition of human MST4 (2 to 416 residues) assessed as remaining enzyme activity at 50 uM after 30 mins by 33P-ATP filter-binding assay
[7] = target: MAP kinase-interacting serine/threonine-protein kinase 1 (Homo sapiens) (UniProt Q9BUB5); assay: Inhibition of human MNK1 (2 to 424 residues) assessed as remaining enzyme activity at 50 uM after 30 mins by 33P-ATP filter-binding assay
[8] = target: Testis-specific serine/threonine-protein kinase 1 (Homo sapiens) (UniProt Q9BXA7); assay: Inhibition of human TSSK1 (1 to 367 residues) assessed as remaining enzyme activity at 50 uM after 30 mins by 33P-ATP filter-binding assay
[9] = target: Interleukin-1 receptor-associated kinase 1 (Homo sapiens) (UniProt P51617); assay: Inhibition of human IRAK1 (1 to 712 residues) assessed as remaining enzyme activity at 50 uM after 30 mins by 33P-ATP filter-binding assay
[10] = target: Homeodomain-interacting protein kinase 1 (Homo sapiens) (UniProt Q86Z02); assay: Inhibition of human HIPK1 (158 to 555 residues) assessed as remaining enzyme activity at 50 uM after 30 mins by 33P-ATP filter-binding assay
[11] = Stability in SIF solution assessed as reduction in compound AUC at 120 ug/ml after 8 hrs by RP-HPLC analysis; assay type: physicochemical; details: read-out: Drug degradation
PSN1 = assay: Cytotoxicity against human PSN1 cells assessed as cell growth inhibition after 48 hrs by MTT assay; assay type: functional; details: PSN1, 48 h
[12] = Cytotoxicity against human PC3 cells assessed as cell growth inhibition after 48 hrs by MTT assay; assay type: functional; details: PC-3, 48 h
[13] = target: Glycogen synthase kinase-3 beta (Homo sapiens) (UniProt P49841); assay: Inhibition of human GSK3beta (2 to 420 residues) assessed as remaining enzyme activity at 50 uM after 30 mins by 33P-ATP filter-binding assay
[14] = target: MAP kinase-activated protein kinase 3 (Homo sapiens) (UniProt Q16644); assay: Inhibition of human MAPKAPK3 assessed as remaining enzyme activity at 50 uM after 30 mins by 33P-ATP filter-binding assay
[15] = Cell cycle arrest in human HL60 cells assessed as accumulation at S phase at 5 uM (reference value: 36 %); assay type: functional, cell-based; details: HL-60
MAP3K9 = assay: Inhibition of human MLK1 (132 to 413 residues) assessed as remaining enzyme activity at 50 uM after 30 mins by 33P-ATP filter-binding assay
[16] = target: Ribosomal protein S6 kinase alpha-5 (Homo sapiens) (UniProt O75582); assay: Inhibition of human MSK1 (2 to 802 residues) assessed as remaining enzyme activity at 50 uM after 30 mins by 33P-ATP filter-binding assay
[17] = target: Receptor-interacting serine/threonine-protein kinase 2 (Homo sapiens) (UniProt O43353); assay: Inhibition of human RIPK2 (2 to 311 residues) assessed as remaining enzyme activity at 50 uM after 30 mins by 33P-ATP filter-binding assay
[18] = target: Insulin receptor (Homo sapiens) (UniProt P06213); assay: Inhibition of human IR (1001 to 1382 residues) assessed as remaining enzyme activity at 50 uM after 30 mins by 33P-ATP filter-binding assay
[19] = target: Serine/threonine-protein kinase PAK 4 (Homo sapiens) (UniProt O96013); assay: Inhibition of human PAK4 (2 to 591 residues) assessed as remaining enzyme activity at 50 uM after 30 mins by 33P-ATP filter-binding assay
[20] = target: Receptor tyrosine-protein kinase erbB-4 (Homo sapiens) (UniProt Q15303); assay: Inhibition of human HER4 (706 to 991 residues) assessed as remaining enzyme activity at 50 uM after 30 mins by 33P-ATP filter-binding assay
[21] = Stability in pH 7.4 buffer at 120 ug/ml after 8 hrs by RP-HPLC analysis; assay type: physicochemical; details: pH 7.4, 8 h
[22] = target: Tyrosine-protein kinase ZAP-70 (Homo sapiens) (UniProt P43403); assay: Inhibition of human ZAP70 (1 to 619 residues) assessed as remaining enzyme activity at 50 uM after 30 mins by 33P-ATP filter-binding assay
[23] = target: Dual specificity tyrosine-phosphorylation-regulated kinase 2 (Homo sapiens) (UniProt Q92630); assay: Inhibition of human DYRK2 (3 to 528 residues) assessed as remaining enzyme activity at 50 uM after 30 mins by 33P-ATP filter-binding assay
[24] = target: Mitogen-activated protein kinase kinase kinase 5 (Homo sapiens) (UniProt Q99683); assay: Inhibition of human ASK1 (670 to 950 residues) assessed as remaining enzyme activity at 50 uM after 30 mins by 33P-ATP filter-binding assay
[25] = target: Serine/threonine-protein kinase pim-3 (Homo sapiens) (UniProt Q86V86); assay: Inhibition of human PIM3 (2 to 326 residues) assessed as remaining enzyme activity at 50 uM after 30 mins by 33P-ATP filter-binding assay
[26] = target: Serine/threonine-protein kinase pim-1 (Homo sapiens) (UniProt P11309); assay: Inhibition of human PIM1 (2 to 313 residues) assessed as remaining enzyme activity at 50 uM after 30 mins by 33P-ATP filter-binding assay
[27] = Cytotoxicity against human HL60 cells assessed as cell growth inhibition after 48 hrs by MTT assay; assay type: functional; details: HL-60, 48 h
[28] = Thermodynamic equilibrium solubility in stimulated intestinal fluid at 120 ug/ml at pH 6.8 by HPLC analysis; assay type: ADME; details: simulated intestinal fluid, read-out: Therm_solubility
[29] = target: Serine/threonine-protein kinase D1 (Homo sapiens) (UniProt Q15139); assay: Inhibition of human PKD1 (2 to 912 residues) assessed as remaining enzyme activity at 50 uM after 30 mins by 33P-ATP filter-binding assay

Activity [1]: 90%
solubility thermodynamic [2]: 16.9 mg/mL (≈ 55.5 mM)
Activity [3]: 87%
Activity [4]: 66%
Activity [6]: 68%
Activity [7]: 88%
Activity [8]: 81%
Activity [9]: 55%
Activity [10]: 96%
degraded at 8 h, 120 ug/ml [11]: 2.42%
Activity [13]: 66%
Activity [14]: 83%
Activity (MAP3K9): 47%
Activity [16]: 30%
Activity [17]: 63%
Activity [18]: 91%
Activity [19]: 83%
Activity [20]: 79%
Stability [21]: Stable
Activity [22]: 103%
Activity [23]: 84%
Activity [24]: 96%
Activity [25]: 12%
Activity [26]: 27%
solubility thermodynamic [28]: 18.9 mg/mL (≈ 61.9 mM)
Activity [29]: 75%
Structure (SMILES): Cc1cc(=O)c2c(O)cc(O)c([C@H]3CCN(C)C[C@H]3O)c2o1 [ROHITUKINE]
GI50 (T47D): 24 µM
Activity [5]: 11%
GI50 (PSN1): 23 µM
GI50 [12]: 19 µM
Activity [15]: 43%
GI50 [27]: 10 µM
